Assay results from PubChem BioAssay (NCI).
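Interpolation was linear, between the two tested concentrations surrounding the appropriate level; five concentrations were tested over 48 hours in 96-well plates. At the TGI there is no net growth.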

Tests used:
Experiment in all cases: NCI tumour cell line growth inhibition, 48 h
786-0 renal = test system: 786-0 renal
A498 renal = test system: A498 renal
A549 NSCLC = test system: A549 NSCLC
ACHN renal = test system: ACHN renal
CAKI-1 renal = test system: CAKI-1 renal
CCRF-CEM leukemia = test system: CCRF-CEM leukemia
COLO 205 colon = test system: COLO 205 colon
DLD-1 colon = test system: DLD-1 colon
DMS 114 small cell lung = test system: DMS 114 small cell lung
DMS 273 small cell lung = test system: DMS 273 small cell lung
EKVX NSCLC = test system: EKVX NSCLC
HCC-2998 colon = test system: HCC-2998 colon
HCT-116 colon = test system: HCT-116 colon
HCT-15 colon = test system: HCT-15 colon
HL-60(TB) leukemia = test system: HL-60(TB) leukemia
HOP-18 NSCLC = test system: HOP-18 NSCLC
HOP-62 NSCLC = test system: HOP-62 NSCLC
HOP-92 NSCLC = test system: HOP-92 NSCLC
HT29 colon = test system: HT29 colon
IGROV1 ovarian = test system: IGROV1 ovarian
K-562 leukemia = test system: K-562 leukemia
KM12 colon = test system: KM12 colon
KM20L2 colon = test system: KM20L2 colon
LOX IMVI melanoma = test system: LOX IMVI melanoma
LXFL 529 NSCLC = test system: LXFL 529 NSCLC
M14 melanoma = test system: M14 melanoma
M19-MEL melanoma = test system: M19-MEL melanoma
MALME-3M melanoma = test system: MALME-3M melanoma
MOLT-4 leukemia = test system: MOLT-4 leukemia
NCI-H226 lung = test system: NCI-H226 lung
NCI-H23 lung = test system: NCI-H23 lung
NCI-H460 lung = test system: NCI-H460 lung
NCI-H522 lung = test system: NCI-H522 lung
OVCAR-3 ovarian = test system: OVCAR-3 ovarian
OVCAR-4 ovarian = test system: OVCAR-4 ovarian
OVCAR-5 ovarian = test system: OVCAR-5 ovarian
OVCAR-8 ovarian = test system: OVCAR-8 ovarian
RXF 393 renal = test system: RXF 393 renal
RXF-631 renal = test system: RXF-631 renal
SF-268 CNS = test system: SF-268 CNS
SF-295 CNS = test system: SF-295 CNS
SF-539 CNS = test system: SF-539 CNS
SK-MEL-2 melanoma = test system: SK-MEL-2 melanoma
SK-MEL-28 melanoma = test system: SK-MEL-28 melanoma
SK-MEL-5 melanoma = test system: SK-MEL-5 melanoma
SK-OV-3 ovarian = test system: SK-OV-3 ovarian
SN12C renal = test system: SN12C renal
SNB-19 CNS = test system: SNB-19 CNS
SNB-75 CNS = test system: SNB-75 CNS
SNB-78 CNS = test system: SNB-78 CNS
SR leukemia = test system: SR leukemia
SW-620 colon = test system: SW-620 colon
TK-10 renal = test system: TK-10 renal
U251 CNS = test system: U251 CNS
UACC-257 melanoma = test system: UACC-257 melanoma
UACC-62 melanoma = test system: UACC-62 melanoma
UO-31 renal = test system: UO-31 renal
XF 498 CNS = test system: XF 498 CNS
RPMI-8226 leukemia = test system: RPMI-8226 leukemia

In the case of `COc1ccc(C2=Nc3ccccc3NC(=O)C2)cc1`, the TGI (786-0 renal) is reported as > 100 µM, the TGI (A498 renal) is reported as > 100 µM and the TGI (A549 NSCLC) is reported as > 100 µM. For the same compound, the TGI (ACHN renal) was > 100 µM, the TGI (CAKI-1 renal) was > 100 µM and the TGI (CCRF-CEM leukemia) was > 100 µM. For the same compound, the TGI (COLO 205 colon) was > 100 µM, the TGI (DLD-1 colon) was > 100 µM and the TGI (DMS 114 small cell lung) was 59.7 µM. For the same compound, the TGI (DMS 273 small cell lung) was > 100 µM, the TGI (EKVX NSCLC) was > 100 µM and the TGI (HCC-2998 colon) was > 100 µM. For the same compound, the TGI (HCT-116 colon) was 42.3 µM, the TGI (HCT-15 colon) was > 100 µM and the TGI (HL-60(TB) leukemia) was 42.1 µM. For the same compound, the TGI (HOP-18 NSCLC) was > 100 µM, the TGI (HOP-62 NSCLC) was 45.6 µM and the TGI (HOP-92 NSCLC) was 54 µM. The TGI (HT29 colon) was > 100 µM, the TGI (IGROV1 ovarian) was > 100 µM and the TGI (K-562 leukemia) was > 100 µM. For the same compound, the TGI (KM12 colon) was > 100 µM, the TGI (KM20L2 colon) was > 100 µM and the TGI (LOX IMVI melanoma) was 37.1 µM. The TGI (LXFL 529 NSCLC) was > 100 µM, the TGI (M14 melanoma) was > 100 µM and the TGI (M19-MEL melanoma) was > 100 µM. The TGI (MALME-3M melanoma) was > 100 µM, the TGI (MOLT-4 leukemia) was > 100 µM and the TGI (NCI-H226 lung) was > 100 µM. The TGI (NCI-H23 lung) was 67 µM, the TGI (NCI-H460 lung) was > 100 µM and the TGI (NCI-H522 lung) was > 100 µM. The TGI (OVCAR-3 ovarian) was > 100 µM, the TGI (OVCAR-4 ovarian) was > 100 µM and the TGI (OVCAR-5 ovarian) was > 100 µM. For the same compound, the TGI (OVCAR-8 ovarian) was > 100 µM, the TGI (RXF 393 renal) was 46.2 µM and the TGI (RXF-631 renal) was > 100 µM. It also gave a TGI (SF-268 CNS) of 78.1 µM, a TGI (SF-295 CNS) of 47.8 µM and a TGI (SF-539 CNS) of 65.6 µM. The TGI (SK-MEL-2 melanoma) was > 100 µM, the TGI (SK-MEL-28 melanoma) was > 100 µM and the TGI (SK-MEL-5 melanoma) was > 100 µM. The TGI (SK-OV-3 ovarian) was 38.2 µM, the TGI (SN12C renal) was > 100 µM and the TGI (SNB-19 CNS) was > 100 µM. The TGI (SNB-75 CNS) was 57.3 µM, the TGI (SNB-78 CNS) was 70 µM and the TGI (SR leukemia) was > 100 µM. The TGI (SW-620 colon) was 45 µM, the TGI (TK-10 renal) was 66.4 µM and the TGI (U251 CNS) was 82.3 µM. The TGI (UACC-257 melanoma) was > 100 µM, the TGI (UACC-62 melanoma) was > 100 µM and the TGI (UO-31 renal) was > 100 µM. It also gave a TGI (XF 498 CNS) of 36.8 µM.
In the case of `C#CCOCn1cnc2c(Cl)ncnc21`, the TGI (786-0 renal) is reported as > 100 µM, the TGI (A498 renal) is reported as > 100 µM and the TGI (A549 NSCLC) is reported as > 100 µM. For the same compound, the TGI (ACHN renal) was > 100 µM, the TGI (CAKI-1 renal) was > 100 µM and the TGI (CCRF-CEM leukemia) was > 100 µM. For the same compound, the TGI (COLO 205 colon) was > 100 µM, the TGI (DLD-1 colon) was > 100 µM and the TGI (DMS 114 small cell lung) was > 100 µM. The TGI (DMS 273 small cell lung) was > 100 µM, the TGI (EKVX NSCLC) was > 100 µM and the TGI (HCC-2998 colon) was > 100 µM. The TGI (HCT-116 colon) was > 100 µM, the TGI (HOP-18 NSCLC) was > 100 µM and the TGI (HOP-62 NSCLC) was > 100 µM. For the same compound, the TGI (HOP-92 NSCLC) was > 100 µM, the TGI (HT29 colon) was > 100 µM and the TGI (IGROV1 ovarian) was > 100 µM. For the same compound, the TGI (K-562 leukemia) was > 100 µM, the TGI (KM12 colon) was > 100 µM and the TGI (LOX IMVI melanoma) was > 100 µM. The TGI (LXFL 529 NSCLC) was > 100 µM, the TGI (M14 melanoma) was > 100 µM and the TGI (M19-MEL melanoma) was > 100 µM. The TGI (MALME-3M melanoma) was > 100 µM, the TGI (MOLT-4 leukemia) was > 100 µM and the TGI (NCI-H226 lung) was > 100 µM. The TGI (NCI-H23 lung) was > 100 µM, the TGI (NCI-H460 lung) was > 100 µM and the TGI (NCI-H522 lung) was > 100 µM. For the same compound, the TGI (OVCAR-3 ovarian) was > 100 µM, the TGI (OVCAR-4 ovarian) was > 100 µM and the TGI (OVCAR-5 ovarian) was > 100 µM. For the same compound, the TGI (OVCAR-8 ovarian) was > 100 µM, the TGI (RPMI-8226 leukemia) was > 100 µM and the TGI (RXF-631 renal) was > 100 µM. The TGI (SF-268 CNS) was > 100 µM, the TGI (SF-295 CNS) was > 100 µM and the TGI (SF-539 CNS) was > 100 µM. For the same compound, the TGI (SK-MEL-2 melanoma) was > 100 µM, the TGI (SK-MEL-28 melanoma) was > 100 µM and the TGI (SK-MEL-5 melanoma) was > 100 µM. The TGI (SK-OV-3 ovarian) was > 100 µM, the TGI (SN12C renal) was > 100 µM and the TGI (SNB-19 CNS) was > 100 µM. For the same compound, the TGI (SNB-75 CNS) was > 100 µM, the TGI (SNB-78 CNS) was > 100 µM and the TGI (SR leukemia) was > 100 µM. For the same compound, the TGI (SW-620 colon) was > 100 µM, the TGI (TK-10 renal) was > 100 µM and the TGI (U251 CNS) was > 100 µM. For the same compound, the TGI (UACC-257 melanoma) was > 100 µM, the TGI (UACC-62 melanoma) was > 100 µM and the TGI (UO-31 renal) was > 100 µM. The TGI (XF 498 CNS) was > 100 µM.
